ChEMBL document CHEMBL5543111, “Uncovering PROTAC Sensitivity and Efficacy by Multidimensional Proteome Profiling: A Case for STAT3” (J Med Chem, 2024)
The source made the active and inactive calls. The rule behind the calls is not given here.

Key:
Pfeiffer [1] = assay: Cytotoxicity against human Pfeiffer cells harbouring STAT1 assessed as reduction in cell viability measured after 3 days by CCK- method; assay type: functional, cell-based; conditions: time 3.0 day
[2] = molecular target: T1, Protein cereblon/Signal transducer and activator of transcription 2 (Homo sapiens) (UniProt Q96SW2+P52630); assay: PROTAC activity at CRBN/STAT2 in human DB cells assessed as induction of STAT2 degradation at 5 to 10 uM measured after 24 hrs; assay type: cell-based; conditions: dose 5-10 µM
[3] = molecular target: T2, Protein cereblon/Signal transducer and activator of transcription 3 (Homo sapiens) (UniProt P40763+Q96SW2); assay: PROTAC activity at CRBN/STAT3 in human SUPM2 cells assessed as fold change in STAT3 degradation at 5 uM measured after 24 hrs; assay type: cell-based
[4] = molecular target: T2, Protein cereblon/Signal transducer and activator of transcription 3 (Homo sapiens); assay: PROTAC activity at CRBN/STAT3 in human MOLM16 cells assessed as fold change in STAT3 degradation at 5 uM measured after 24 hrs; assay type: cell-based
MOLM-16 [5] = assay: Downregulation of NOP53 expression in human MOLM16 at 5 to 10 uM measured after 24 hrs; assay type: functional, cell-based; conditions: dose 5-10 µM
[6] = molecular target: T2, Protein cereblon/Signal transducer and activator of transcription 3 (Homo sapiens); assay: PROTAC activity at CRBN/STAT3 in human Pfeiffer cells assessed as induction of STAT3 degradation at 5 uM measured after 3 hrs; assay type: cell-based
Mus musculus [7] = assay: In vivo PROTAC activity at CRBN/STAT1 in human Pfeiffer cells xenografted in CB-17/SCID mouse model bearing last stage of TPPRC assessed as upregulation of STAT1 by measuring fold change; assay type: functional
[8] = molecular target: T2, Protein cereblon/Signal transducer and activator of transcription 3 (Homo sapiens); assay: PROTAC activity at CRBN/STAT3 in human DB cells assessed as fold change in STAT3 degradation at 5 uM measured after 24 hrs; assay type: cell-based
[9] = molecular target: T3, Protein cereblon/Signal transducer and activator of transcription 5B (Homo sapiens) (UniProt P51692+Q96SW2); assay: PROTAC activity at CRBN/STAT5B in human DB cells assessed as induction of STAT5B degradation at 5 to 10 uM measured after 24 hrs; assay type: cell-based; conditions: dose 5-10 µM
Pfeiffer [10] = assay: Cytotoxicity against human Pfeiffer cells harbouring STAT3 assessed as reduction in cell viability at 2 uM measured after 3 days by CCK- method; assay type: functional, cell-based; conditions: time 3.0 day
[11] = Toxicity in CB-17/SCID mouse bearing late stage of TPPRC assessed as effect on body weight at 25 to 50 mg/kg, iv measured after 21 days; assay type: organism-based; conditions: in vivo, 504 h, dose 25-50 mg/kg, time 21 day
[12] = molecular target: T2, Protein cereblon/Signal transducer and activator of transcription 3 (Homo sapiens); assay: PROTAC activity at CRBN/STAT3 in human KARPAS-299 cells assessed as induction of STAT3 degradation at 5 to 10 uM measured after 24 hrs; assay type: cell-based; conditions: dose 5-10 µM
[13] = molecular target: T2, Protein cereblon/Signal transducer and activator of transcription 3 (Homo sapiens); assay: PROTAC activity at CRBN/STAT3 in human SUPM2 cells assessed as induction of STAT3 degradation at 5 uM measured after 3 hrs; assay type: cell-based
Pfeiffer [14] = assay: Downregulation of STAT1 expression in patient derived STAT1 high expressing human Pfeiffer cell organoids at 2 uM by Western blot analysis; assay type: functional, cell-based
Pfeiffer [15] = assay: Antitumor activity against human Pfeiffer cells xenografted in CB-17/SCID mouse model bearing late stage of TPPRC assessed as inhibition of tumor growth at 25 to 50 mg/kg, iv measured upto 21 days; assay type: functional, organism-based; conditions: dose 25-50 mg/kg, time <= 21.0 day
Pfeiffer [16] = assay: Downregulation of PCLAF expression in human Pfeiffer at 5 to 10 uM measured after 24 hrs; assay type: functional, cell-based; conditions: dose 5-10 µM
MOLM-16 [17] = assay: Downregulation of PCLAF expression in human MOLM16 at 5 to 10 uM measured after 24 hrs; assay type: functional, cell-based; conditions: dose 5-10 µM
KARPAS-299 [18] = assay: Downregulation of PCLAF expression in human KARPAS-299 at 5 to 10 uM measured after 24 hrs; assay type: functional, cell-based; conditions: dose 5-10 µM
Mus musculus [19] = assay: In vivo PROTAC activity at CRBN/STAT1 in human Pfeiffer cells xenografted in CB-17/SCID mouse model bearing middle stage of TPPRC assessed as upregulation of STAT1 by measuring fold change; assay type: functional
SUP-M2 [20] = assay: Downregulation of PCLAF expression in human SUPM2 at 5 to 10 uM measured after 24 hrs; assay type: functional, cell-based; conditions: dose 5-10 µM
SUD4 [21] = assay: Downregulation of PCLAF expression in human SU-DHL-4 at 5 to 10 uM measured after 24 hrs; assay type: functional, cell-based; conditions: dose 5-10 µM
[22] = molecular target: T2, Protein cereblon/Signal transducer and activator of transcription 3 (Homo sapiens); assay: PROTAC activity at CRBN/STAT3 in human SU-DHL-4 cells assessed as fold change in STAT3 degradation at 5 uM measured after 24 hrs; assay type: cell-based
[23] = molecular target: T4, Protein cereblon/Signal transducer and activator of transcription 1-alpha/beta (Homo sapiens) (UniProt P42224+Q96SW2); assay: PROTAC activity at CRBN/STAT1 in human DB cells assessed as induction of STAT1 degradation at 5 to 10 uM measured after 24 hrs; assay type: cell-based; conditions: dose 5-10 µM
DB [24] = assay: Downregulation of PCLAF expression in human DB at 5 to 10 uM measured after 24 hrs; assay type: functional, cell-based; conditions: dose 5-10 µM
SUP-M2 [25] = assay: Downregulation of NOP53 expression in human SUPM2 at 5 to 10 uM measured after 24 hrs; assay type: functional, cell-based; conditions: dose 5-10 µM
[26] = molecular target: T2, Protein cereblon/Signal transducer and activator of transcription 3 (Homo sapiens); assay: PROTAC activity at CRBN/STAT3 in human DB cells assessed as induction of STAT3 degradation at 5 uM measured after 3 hrs; assay type: cell-based
[27] = molecular target: T5, Protein cereblon/Signal transducer and activator of transcription 5A (Homo sapiens) (UniProt P42229+Q96SW2); assay: PROTAC activity at CRBN/STAT5A in human DB cells assessed as induction of STAT5A degradation at 5 to 10 uM measured after 24 hrs; assay type: cell-based; conditions: dose 5-10 µM
Mus musculus [28] = assay: In vivo PROTAC activity at human Pfeiffer cells xenografted in CB-17/SCID mouse model bearing late stage of TPPRC assessed as degradation of STAT3 at administered as IV dose; assay type: functional, organism-based; conditions: dose 25-50 mg/kg
[29] = molecular target: T2, Protein cereblon/Signal transducer and activator of transcription 3 (Homo sapiens); assay: PROTAC activity at CRBN/STAT3 in human Pfeiffer cells assessed as fold change in STAT3 degradation at 5 uM measured after 24 hrs; assay type: cell-based
SUD4 [30] = assay: Downregulation of NOP53 expression in human SU-DHL-4 at 5 to 10 uM measured after 24 hrs; assay type: functional, cell-based; conditions: dose 5-10 µM
[31] = molecular target: T3, Protein cereblon/Signal transducer and activator of transcription 5B (Homo sapiens); assay: PROTAC activity at CRBN/STAT5B in human KARPAS-299 cells assessed as induction of STAT5B degradation at 5 to 10 uM measured after 24 hrs; assay type: cell-based; conditions: dose 5-10 µM
[32] = molecular target: T6, Protein cereblon/Signal transducer and activator of transcription 6 (Homo sapiens) (UniProt P42226+Q96SW2); assay: PROTAC activity at CRBN/STAT6 in human KARPAS-299 cells assessed as induction of STAT6 degradation at 5 to 10 uM measured after 24 hrs; assay type: cell-based; conditions: dose 5-10 µM
[33] = molecular target: T2, Protein cereblon/Signal transducer and activator of transcription 3 (Homo sapiens); assay: PROTAC activity at CRBN/STAT3 in human KARPAS-299 cells assessed as fold change in STAT3 degradation at 5 uM measured after 24 hrs; assay type: cell-based
[34] = molecular target: T5, Protein cereblon/Signal transducer and activator of transcription 5A (Homo sapiens); assay: PROTAC activity at CRBN/STAT5A in human KARPAS-299 cells assessed as induction of STAT5A degradation at 5 to 10 uM measured after 24 hrs; assay type: cell-based; conditions: dose 5-10 µM
[35] = molecular target: T4, Protein cereblon/Signal transducer and activator of transcription 1-alpha/beta (Homo sapiens); assay: PROTAC activity at CRBN/STAT1 in human KARPAS-299 cells assessed as induction of STAT1 degradation at 5 to 10 uM measured after 24 hrs; assay type: cell-based; conditions: dose 5-10 µM
[36] = molecular target: T2, Protein cereblon/Signal transducer and activator of transcription 3 (Homo sapiens); assay: PROTAC activity at CRBN/STAT3 in human KARPAS-299 cells assessed as induction of STAT3 degradation at 5 uM measured after 3 hrs; assay type: cell-based
[37] = molecular target: T1, Protein cereblon/Signal transducer and activator of transcription 2 (Homo sapiens); assay: PROTAC activity at CRBN/STAT2 in human KARPAS-299 cells assessed as induction of STAT2 degradation at 5 to 10 uM measured after 24 hrs; assay type: cell-based; conditions: dose 5-10 µM
KARPAS-299 [38] = assay: Downregulation of NOP53 expression in human KARPAS-299 at 5 to 10 uM measured after 24 hrs; assay type: functional, cell-based; conditions: dose 5-10 µM
[39] = molecular target: T2, Protein cereblon/Signal transducer and activator of transcription 3 (Homo sapiens); assay: PROTAC activity at CRBN/STAT3 in human DB cells assessed as induction of STAT3 degradation at 5 to 10 uM measured after 24 hrs; assay type: cell-based; conditions: dose 5-10 µM
[40] = molecular target: T2, Protein cereblon/Signal transducer and activator of transcription 3 (Homo sapiens); assay: PROTAC activity at CRBN/STAT3 in human SU-DHL-4 cells assessed as induction of STAT3 degradation at 5 uM measured after 3 hrs; assay type: cell-based
Pfeiffer [41] = assay: Downregulation of NOP53 expression in human Pfeiffer at 5 to 10 uM measured after 24 hrs; assay type: functional, cell-based; conditions: dose 5-10 µM
[42] = molecular target: T6, Protein cereblon/Signal transducer and activator of transcription 6 (Homo sapiens); assay: PROTAC activity at CRBN/STAT6 in human DB cells assessed as induction of STAT6 degradation at 5 to 10 uM measured after 24 hrs; assay type: cell-based; conditions: dose 5-10 µM
Pfeiffer [43] = assay: Downregulation of STAT3 expression in patient derived STAT3 high expressing human Pfeiffer cell organoids at 2 uM by Western blot analysis; assay type: functional, cell-based
Pfeiffer [44] = assay: Downregulation of STAT3 expression in patient derived STAT3 low expressing human Pfeiffer cell organoids at 2 uM by Western blot analysis; assay type: functional, cell-based
[45] = molecular target: T2, Protein cereblon/Signal transducer and activator of transcription 3 (Homo sapiens); assay: PROTAC activity at CRBN/STAT3 in human MOLM16 cells assessed as induction of STAT3 degradation at 5 uM measured after 3 hrs; assay type: cell-based
DB [46] = assay: Downregulation of NOP53 expression in human DB at 5 to 10 uM measured after 24 hrs; assay type: functional, cell-based; conditions: dose 5-10 µM

T2 sequence (P40763 2-770 limits assumed): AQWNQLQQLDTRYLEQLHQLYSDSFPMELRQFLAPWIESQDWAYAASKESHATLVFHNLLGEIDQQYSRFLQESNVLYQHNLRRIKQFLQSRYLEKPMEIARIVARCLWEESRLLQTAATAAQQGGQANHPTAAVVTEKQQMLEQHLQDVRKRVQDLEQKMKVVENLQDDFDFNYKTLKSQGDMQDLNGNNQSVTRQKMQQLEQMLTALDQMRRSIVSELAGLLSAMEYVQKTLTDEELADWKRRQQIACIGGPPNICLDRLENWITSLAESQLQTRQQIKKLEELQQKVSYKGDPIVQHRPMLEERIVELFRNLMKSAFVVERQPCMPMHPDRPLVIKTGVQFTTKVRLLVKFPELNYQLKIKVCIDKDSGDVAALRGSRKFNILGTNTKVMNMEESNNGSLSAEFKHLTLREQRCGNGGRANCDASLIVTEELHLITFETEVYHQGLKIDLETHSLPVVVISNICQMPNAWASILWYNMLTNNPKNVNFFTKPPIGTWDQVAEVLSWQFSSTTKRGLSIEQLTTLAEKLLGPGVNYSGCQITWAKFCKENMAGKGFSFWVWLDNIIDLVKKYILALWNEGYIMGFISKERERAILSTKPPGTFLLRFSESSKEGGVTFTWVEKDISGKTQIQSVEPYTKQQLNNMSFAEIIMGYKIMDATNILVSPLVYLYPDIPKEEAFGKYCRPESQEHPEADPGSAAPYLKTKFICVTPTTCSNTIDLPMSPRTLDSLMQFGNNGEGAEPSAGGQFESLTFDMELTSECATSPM
T2 sequence (Q96SW2 whole entry partner): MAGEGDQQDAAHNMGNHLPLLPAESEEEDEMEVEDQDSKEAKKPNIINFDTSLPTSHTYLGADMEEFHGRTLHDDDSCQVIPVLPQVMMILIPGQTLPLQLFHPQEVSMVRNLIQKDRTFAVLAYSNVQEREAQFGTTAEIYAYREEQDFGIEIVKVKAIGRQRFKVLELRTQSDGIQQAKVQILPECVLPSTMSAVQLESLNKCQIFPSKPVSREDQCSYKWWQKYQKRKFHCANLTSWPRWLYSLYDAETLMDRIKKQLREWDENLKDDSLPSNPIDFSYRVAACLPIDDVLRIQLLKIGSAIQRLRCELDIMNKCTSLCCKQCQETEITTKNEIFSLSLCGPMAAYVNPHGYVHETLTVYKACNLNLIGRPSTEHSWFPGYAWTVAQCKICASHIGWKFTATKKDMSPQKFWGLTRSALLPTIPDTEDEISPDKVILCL
T5 sequence (P42229 whole entry, looked up): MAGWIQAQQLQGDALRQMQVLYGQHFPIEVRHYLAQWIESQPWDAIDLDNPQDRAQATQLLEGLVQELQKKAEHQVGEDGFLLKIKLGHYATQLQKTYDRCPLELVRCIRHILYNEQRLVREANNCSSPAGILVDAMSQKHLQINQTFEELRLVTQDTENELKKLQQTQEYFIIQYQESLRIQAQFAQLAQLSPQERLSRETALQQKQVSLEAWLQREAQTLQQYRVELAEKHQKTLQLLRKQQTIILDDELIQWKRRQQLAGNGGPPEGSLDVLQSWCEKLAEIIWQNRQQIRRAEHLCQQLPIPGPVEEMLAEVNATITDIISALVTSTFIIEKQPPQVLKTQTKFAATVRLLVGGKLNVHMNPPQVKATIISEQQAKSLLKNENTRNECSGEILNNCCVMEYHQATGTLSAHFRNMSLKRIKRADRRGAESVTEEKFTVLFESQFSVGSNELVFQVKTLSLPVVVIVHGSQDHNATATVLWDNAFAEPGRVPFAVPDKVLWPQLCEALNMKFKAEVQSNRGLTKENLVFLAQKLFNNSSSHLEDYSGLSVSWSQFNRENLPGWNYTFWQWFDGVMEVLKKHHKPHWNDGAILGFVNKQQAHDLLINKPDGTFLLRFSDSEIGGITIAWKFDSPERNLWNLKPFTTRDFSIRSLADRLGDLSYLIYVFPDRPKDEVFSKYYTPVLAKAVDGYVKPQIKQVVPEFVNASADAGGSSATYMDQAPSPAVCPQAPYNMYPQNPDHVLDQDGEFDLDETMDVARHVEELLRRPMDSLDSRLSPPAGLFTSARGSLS
T5 sequence (Q96SW2 whole entry, looked up): as the sequence (Q96SW2 whole entry partner) above
T1 sequence (P52630 whole entry, looked up): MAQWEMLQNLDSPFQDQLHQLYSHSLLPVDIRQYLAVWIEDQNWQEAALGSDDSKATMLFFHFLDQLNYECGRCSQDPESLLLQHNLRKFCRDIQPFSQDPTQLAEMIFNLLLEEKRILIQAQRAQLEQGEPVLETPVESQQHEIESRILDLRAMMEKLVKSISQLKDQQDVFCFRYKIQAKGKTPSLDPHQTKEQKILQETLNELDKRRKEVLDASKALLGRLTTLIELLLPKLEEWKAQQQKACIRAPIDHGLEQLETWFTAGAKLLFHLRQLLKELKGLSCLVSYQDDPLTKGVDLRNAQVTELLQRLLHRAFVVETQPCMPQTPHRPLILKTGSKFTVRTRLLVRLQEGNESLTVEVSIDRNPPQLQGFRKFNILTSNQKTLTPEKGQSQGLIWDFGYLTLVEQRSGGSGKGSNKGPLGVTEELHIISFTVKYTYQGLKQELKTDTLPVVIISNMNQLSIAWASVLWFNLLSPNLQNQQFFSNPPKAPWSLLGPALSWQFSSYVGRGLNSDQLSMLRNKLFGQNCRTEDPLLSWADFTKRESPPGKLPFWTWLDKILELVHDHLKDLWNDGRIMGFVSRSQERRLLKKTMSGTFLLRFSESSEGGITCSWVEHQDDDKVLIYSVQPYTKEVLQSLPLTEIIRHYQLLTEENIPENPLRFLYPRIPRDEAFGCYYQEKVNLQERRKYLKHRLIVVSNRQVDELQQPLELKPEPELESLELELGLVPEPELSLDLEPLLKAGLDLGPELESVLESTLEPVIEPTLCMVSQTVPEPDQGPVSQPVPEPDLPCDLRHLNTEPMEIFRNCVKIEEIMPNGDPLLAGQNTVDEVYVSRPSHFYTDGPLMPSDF
T1 sequence (Q96SW2 whole entry, looked up): as the sequence (Q96SW2 whole entry partner) above
T3 sequence (P51692 whole entry, looked up): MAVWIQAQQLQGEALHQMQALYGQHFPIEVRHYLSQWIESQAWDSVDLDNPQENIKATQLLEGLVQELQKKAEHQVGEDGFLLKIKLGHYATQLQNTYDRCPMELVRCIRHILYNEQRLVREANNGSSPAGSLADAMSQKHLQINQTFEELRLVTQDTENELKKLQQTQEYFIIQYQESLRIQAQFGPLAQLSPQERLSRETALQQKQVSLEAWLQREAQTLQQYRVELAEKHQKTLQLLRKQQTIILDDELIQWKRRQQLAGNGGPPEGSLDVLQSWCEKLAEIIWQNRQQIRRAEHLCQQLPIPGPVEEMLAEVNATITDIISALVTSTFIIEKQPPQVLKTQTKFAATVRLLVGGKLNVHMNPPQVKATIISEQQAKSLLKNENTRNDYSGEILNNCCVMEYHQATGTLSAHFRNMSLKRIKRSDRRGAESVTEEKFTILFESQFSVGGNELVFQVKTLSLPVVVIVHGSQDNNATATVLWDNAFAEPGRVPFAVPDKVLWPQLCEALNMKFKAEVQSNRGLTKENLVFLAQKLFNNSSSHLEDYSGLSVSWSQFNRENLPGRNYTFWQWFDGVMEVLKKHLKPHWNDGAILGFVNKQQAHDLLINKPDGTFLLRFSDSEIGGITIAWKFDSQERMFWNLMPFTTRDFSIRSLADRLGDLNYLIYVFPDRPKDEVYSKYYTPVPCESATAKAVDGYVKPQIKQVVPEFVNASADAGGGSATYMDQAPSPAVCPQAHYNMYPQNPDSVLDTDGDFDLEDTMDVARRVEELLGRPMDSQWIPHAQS
T3 sequence (Q96SW2 whole entry, looked up): as the sequence (Q96SW2 whole entry partner) above
T6 sequence (P42226 2-847 limits assumed): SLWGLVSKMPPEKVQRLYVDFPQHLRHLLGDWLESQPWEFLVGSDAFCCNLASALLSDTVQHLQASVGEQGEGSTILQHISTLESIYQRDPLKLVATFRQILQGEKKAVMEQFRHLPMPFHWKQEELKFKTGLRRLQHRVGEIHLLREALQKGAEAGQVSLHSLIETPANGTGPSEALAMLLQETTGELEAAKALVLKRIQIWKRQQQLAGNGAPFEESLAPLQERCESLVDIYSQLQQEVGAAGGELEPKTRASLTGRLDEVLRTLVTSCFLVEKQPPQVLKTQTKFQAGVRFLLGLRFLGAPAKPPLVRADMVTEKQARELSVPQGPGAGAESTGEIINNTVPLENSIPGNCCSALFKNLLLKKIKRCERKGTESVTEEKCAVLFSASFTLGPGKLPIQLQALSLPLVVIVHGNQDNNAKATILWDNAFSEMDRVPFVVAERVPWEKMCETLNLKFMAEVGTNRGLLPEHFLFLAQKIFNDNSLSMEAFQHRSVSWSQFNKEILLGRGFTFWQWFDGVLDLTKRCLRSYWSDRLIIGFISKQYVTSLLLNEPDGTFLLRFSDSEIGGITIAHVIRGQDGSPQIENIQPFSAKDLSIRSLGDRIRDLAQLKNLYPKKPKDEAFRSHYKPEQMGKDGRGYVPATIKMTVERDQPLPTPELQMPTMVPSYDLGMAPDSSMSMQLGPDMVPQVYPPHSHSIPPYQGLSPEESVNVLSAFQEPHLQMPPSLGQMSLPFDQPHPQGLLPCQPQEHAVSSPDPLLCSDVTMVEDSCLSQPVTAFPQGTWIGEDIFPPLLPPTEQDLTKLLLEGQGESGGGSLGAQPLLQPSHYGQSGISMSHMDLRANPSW
T6 sequence (Q96SW2 whole entry partner): as the sequence (Q96SW2 whole entry partner) above

In the case of `NC(=O)CC[C@H](NC(=O)[C@@H]1CC[C@@H]2CCN(C(=O)CCCCCC#Cc3cccc4c3CN(C3CCC(=O)NC3=O)C4=O)C[C@H](NC(=O)c3cc4cc(C(F)(F)P(=O)(O)O)ccc4[nH]3)C(=O)N21)C(=O)NC(c1ccccc1)c1ccccc1` (stereo partly specified), the Activity (Pfeiffer [1]) is reported as “Active”, the Activity [2] is reported as “inactive” and the fold change (FC) [3] is reported as 0.66. The fold change (FC) [4] was 0.66, the Activity (MOLM-16 [5]) was “Active” and the Activity [6] was “Active”. For the same compound, the “fold change (FC)” value (Mus musculus [7]) was over 3.5, the fold change (FC) [8] was 0.66 and the Activity [9] was “inactive”. The Activity (Pfeiffer [10]) was “Active”, the Activity [11] was “Non-Toxic” and the Activity [12] was “Active”. The Activity [13] was “Active”, the Activity (Pfeiffer [14]) was “Active” and the Activity (Pfeiffer [15]) was “Active”. The Activity (Pfeiffer [16]) was “inactive”, the Activity (MOLM-16 [17]) was “Active” and the Activity (KARPAS-299 [18]) was “Active”. The “fold change (FC)” value (Mus musculus [19]) was over 3.5, the Activity (SUP-M2 [20]) was “Active” and the Activity (SUD4 [21]) was “inactive”. For the same compound, the fold change (FC) [22] was 0.66, the Activity [23] was “inactive” and the Activity (DB [24]) was “inactive”. The Activity (SUP-M2 [25]) was “Active”, the Activity [26] was “Active” and the Activity [27] was “inactive”. For the same compound, the Activity (Mus musculus [28]) was “Dose-Dependent Effect”, the fold change (FC) [29] was 0.66 and the Activity (SUD4 [30]) was “inactive”. For the same compound, the Activity [31] was “inactive”, the Activity [32] was “inactive” and the fold change (FC) [33] was 0.66. For the same compound, the Activity [34] was “inactive”, the Activity [35] was “inactive” and the Activity [36] was “Active”. The Activity [37] was “inactive”, the Activity (KARPAS-299 [38]) was “Active” and the Activity [39] was “Active”. The Activity [40] was “Active”, the Activity (Pfeiffer [41]) was “inactive” and the Activity [42] was “inactive”. The Activity (Pfeiffer [43]) was “Active”, the Activity (Pfeiffer [44]) was “Active” and the Activity [45] was “Active”. For the same compound, the Activity (DB [46]) was “inactive”.
